Measured values taken from paper PMC3097170 (The Journal of pharmacology and experimental therapeutics, 2011).
Values joined by “and” are separate entries in the source; they are usually repeats but may differ in a detail not shown here. Identical values can stand only once. Counter-ions that a name gives are not always drawn. Like-named read-outs stand apart in the source and are kept apart here.

Experiments:
MOR homomers = MOR homomers (Mus musculus, UniProt P42866); assay type: cell-based, murine; conditions: DOR/MOR co-expressing cells
DOR [1] = molecular target: T1, DOR (Mus musculus, UniProt P32300); assay: cell-based; conditions: Log IC50
DOR/MOR [2] = molecular target: T2, DOR/MOR (Mus musculus, UniProt P32300+P42866); assay: cell-based
DOR [3] = molecular target: T1, DOR
DOR [4] = conditions: cited from earlier work
MOR [5] = conditions: cited from earlier work
MOR [6] = molecular target: T3, MOR (Mus musculus, UniProt P42866)
DOR/MOR heteromers = DOR/MOR heteromers (Mus musculus, UniProt P32300+P42866); assay type: cell-based, murine
DOR [7] = molecular target: T1, DOR; remark: listed apart in the source
DOR/MOR [8] = molecular target: T2, DOR/MOR
MOR [9] = molecular target: T3, MOR; remark: listed apart in the source
DOR homomers = DOR homomers (Mus musculus, UniProt P32300); assay type: cell-based, murine
Chain of DOR homomers (P32300 whole entry): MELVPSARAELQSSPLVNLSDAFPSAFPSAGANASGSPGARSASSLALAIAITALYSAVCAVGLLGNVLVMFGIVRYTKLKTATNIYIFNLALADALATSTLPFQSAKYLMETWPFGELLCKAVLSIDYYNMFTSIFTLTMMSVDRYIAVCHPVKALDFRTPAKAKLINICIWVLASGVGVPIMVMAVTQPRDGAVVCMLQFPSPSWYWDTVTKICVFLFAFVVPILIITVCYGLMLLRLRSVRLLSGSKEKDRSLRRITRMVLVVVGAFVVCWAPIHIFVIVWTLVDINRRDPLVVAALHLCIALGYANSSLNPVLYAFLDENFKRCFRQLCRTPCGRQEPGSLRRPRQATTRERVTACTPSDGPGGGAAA

T2 sequence (P42866 whole entry): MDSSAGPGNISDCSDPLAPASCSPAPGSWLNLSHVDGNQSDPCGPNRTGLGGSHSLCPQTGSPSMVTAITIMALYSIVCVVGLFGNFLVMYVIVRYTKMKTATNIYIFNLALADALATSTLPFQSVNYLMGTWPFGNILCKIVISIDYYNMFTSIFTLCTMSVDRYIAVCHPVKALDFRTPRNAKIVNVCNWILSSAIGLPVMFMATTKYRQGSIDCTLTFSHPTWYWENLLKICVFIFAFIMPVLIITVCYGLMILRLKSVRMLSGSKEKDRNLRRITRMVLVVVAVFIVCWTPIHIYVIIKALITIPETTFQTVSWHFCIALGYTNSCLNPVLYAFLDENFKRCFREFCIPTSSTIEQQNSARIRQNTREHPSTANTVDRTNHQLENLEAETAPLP
T2 sequence (P32300 whole entry): as the sequence (P32300 whole entry) above
Chain of DOR/MOR heteromers (P42866 whole entry): as the sequence (P42866 whole entry) above
Chain of DOR/MOR heteromers (P32300 whole entry): as the sequence (P32300 whole entry) above
T3 sequence (P42866 whole entry): as the sequence (P42866 whole entry) above
T1 sequence (P32300 whole entry): as the sequence (P32300 whole entry) above
Chain of MOR homomers (P42866 whole entry): as the sequence (P42866 whole entry) above

SMILES: Oc1ccc2c3c1O[C@H]1c4oc5ccccc5c4C[C@@]4(O)[C@@H](C2)N(CC2CC2)CC[C@]314 [NTB, naltriben mesylate]
- inhibition of methadone- and DAMGO-induced endocytosis of MOR homomers (MOR homomers; NTB 0.05 μM to 1 μM, 20 minutes): inhibited by the highest concentration
- IC50 (DOR [1]): 158 nM and 126 nM
- IC50 (DOR/MOR [2]): 251 nM
- % of maximal inhibition (DOR [3]): 87 ± 2% and 87 ± 12%
- block of DPDPE signaling (DOR [3]): effectively blocked signaling
- fold higher affinity for DOR over MOR (DOR [4]; DOR over MOR, ref Raynor et al., 1994, Kim et al., 2001): > 100 fold
- Ki (DOR [4]; read-out: Ki for DOR, ref Raynor et al., 1994, Kim et al., 2001): 0.013 nM
- Ki (MOR [5]; read-out: Ki for MOR, ref Raynor et al., 1994, Kim et al., 2001): 12 nM
- inhibition of DAMGO-mediated signaling (MOR [6]): 52 ± 4%
- inhibition of methadone-mediated signaling (MOR [6]): 63 ± 10%
- inhibition of methadone- and DAMGO-induced endocytosis of DOR/MOR heteromers (DOR/MOR heteromers): significantly inhibited
- inhibition of DOR endocytosis in response to DPDPE (DOR [7]): did block endocytosis
- % of maximal inhibition (DOR/MOR [8]): 34 ±7 ^### % and 31 ± 5 %
- block of DPDPE signaling (DOR/MOR [8]): effectively blocked signaling
- inhibition of MOR endocytosis in cells expressing only MOR (MOR [9]): did not block endocytosis

SMILES: Oc1ccc2c3c1O[C@H]1c4[nH]c5ccccc5c4C[C@@]4(O)[C@@H](C2)N(CC2CC2)CC[C@]314 [NTI, Naltrindole hydrochloride]
- IC50 (DOR [1]): 63.1 nM and 251 nM
- IC50 (DOR/MOR [2]): 126 nM
- % of maximal inhibition (DOR [3]): 81 ± 3% and 94 ± 1%
- Ki (DOR [4]; read-out: Ki for DOR, reference not given): 0.02 nM
- Ki (MOR [5]; read-out: Ki for MOR, reference not given): 64 nM
- inhibition of methadone- and DAMGO-induced endocytosis of DOR/MOR heteromers (DOR/MOR heteromers): significantly and selectively inhibited
- % of maximal inhibition (DOR/MOR [8]): 79 ± 6% and 48 ± 6%
- Log IC50 (DOR/MOR [8]): −6.9 ± 0.1

SMILES: C[C@@H](NC(=O)[C@@H](N)Cc1ccc(O)cc1)C(=O)NCC(=O)N(C)[C@@H](Cc1ccccc1)C(=O)NCCO [DAMGO, [D-Ala2, NMe-Phe4, Gly-ol5]-enkephalin]
- agonist-induced endocytosis of MOR homomers (MOR homomers; 1 μM, 30 minutes): promoted endocytosis
- agonist-induced endocytosis of DOR homomers (DOR homomers): but not DOR homomers
- Emax (RFU) (DOR [3]): 582 ± 55 RFU
- Emax (RFU) (MOR [6]): 735 ± 51 RFU
- agonist-induced endocytosis of DOR/MOR heteromers (DOR/MOR heteromers): promoted endocytosis
- agonist-induced endocytosis of DOR (DOR [7]): not endocytosed
- Emax (RFU) (DOR/MOR [8]): 956 ± 56 RFU
- agonist-induced endocytosis of MOR (MOR [9]; 1 μM agonist, 30 minutes, cells expressing MOR alone): endocytosed
